Several values for one entry are separate records, joined by “and”; a condition that tells them apart may be missing. Identical values can stand only once.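 Exposure lasted 48 hours, with cells grown in 96-well plates and compounds tested at five concentrations. Abbreviation: GI50, concentration required for 50% inhibition of growth. TGI marks complete inhibition of growth.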
Experiments:
Experiment in all cases: inhibition of tumour cell growth, NCI panel, 48 h
OVCAR-5 ovarian = test system: OVCAR-5 ovarian
KM12 colon = test system: KM12 colon
NCI-H522 lung = test system: NCI-H522 lung
SK-MEL-2 melanoma = test system: SK-MEL-2 melanoma
TK-10 renal = test system: TK-10 renal
OVCAR-3 ovarian = test system: OVCAR-3 ovarian
BT-549 breast = test system: BT-549 breast
M14 melanoma = test system: M14 melanoma
SNB-75 CNS = test system: SNB-75 CNS
A549 NSCLC = test system: A549 NSCLC

SMILES	GI50 (OVCAR-5 ovarian)	TGI (OVCAR-5 ovarian)	GI50 (KM12 colon)	TGI (KM12 colon)	GI50 (NCI-H522 lung)	TGI (NCI-H522 lung)	GI50 (SK-MEL-2 melanoma)	TGI (SK-MEL-2 melanoma)	GI50 (TK-10 renal)	TGI (TK-10 renal) [µM]	GI50 (OVCAR-3 ovarian)	TGI (OVCAR-3 ovarian)	GI50 (BT-549 breast)	TGI (BT-549 breast)	GI50 (M14 melanoma)	TGI (M14 melanoma)	GI50 (SNB-75 CNS)	TGI (SNB-75 CNS)	GI50 (A549 NSCLC)	TGI (A549 NSCLC)
COc1cccc(/C=C/c2nc3c(cnn3-c3ccccc3)c(=O)[nH]2)c1	> 100 µM	> 100 µM	25.5 µM	> 100 µM	> 100 µM	> 100 µM	> 100 µM	> 100 µM	> 28.2 µM	> 100	24.9 µM	> 100 µM	> 72.9 µM	> 100 µM	> 39 µM	> 100 µM	> 25 µM	> 89.3 µM	> 39.6 µM	> 100 µM
C=C1C(=O)OC2C1C(OC(=O)/C(C)=C/C)CC(O)(CCl)C1C(O)C=C(C)C21O (stereo not given)		32.4 µM		49.8 µM		3.29 µM		> 50.3 µM		27.6		27.7 µM		23.4 µM		23.8 µM		> 59 µM		> 63.7 µM
CS(=O)(=O)Nc1cc(-c2ccc3ncnc(Nc4ccc(F)c(Cl)c4)c3c2)cnc1Cl	0.214 µM and 0.533 µM	4.93 µM and 8.78 µM	1.24 µM and 1.71 µM	3.39 µM and 8.13 µM	0.4 µM and 0.815 µM	3.9 µM and 9.8 µM	0.289 µM and 0.441 µM	1.53 µM and 2.32 µM	0.261 µM	2.28	0.36 µM and 0.616 µM	1.92 µM and 5.33 µM	0.307 µM and 0.287 µM	3.36 µM and 2.68 µM	0.477 µM and 0.718 µM	4.53 µM and 6.29 µM	0.132 µM and 0.0697 µM	1.28 µM and 0.812 µM	1.14 µM and 1.26 µM	4.67 µM and 5.81 µM
COCCOCCOCc1n(Cc2ccc3ccccc3c2)c2ccccc2[n+]1Cc1ccc2ccccc2c1	0.927 µM	2.26 µM	0.352 µM	1.29 µM	0.303 µM	1.3 µM	0.313 µM	0.941 µM	0.772 µM	2.15	0.322 µM	1.48 µM	0.366 µM	1.53 µM	0.491 µM	1.99 µM	0.236 µM	1.31 µM	1.33 µM	3.84 µM
O=C(O)C1CC=CCC1C(=O)Nc1cccc(O)c1 (stereo not given)		> 100 µM		> 100 µM		> 100 µM		> 100 µM		> 100		> 100 µM		> 100 µM		> 100 µM		> 100 µM		> 100 µM
CNC(=O)c1cc(Oc2cccc3nc(NC(=O)Nc4cc(C(F)(F)F)cc(C(F)(F)F)c4)ccc23)ccn1	13.3 µM	> 100 µM	15.2 µM	> 100 µM	6.65 µM	35.4 µM	12.7 µM	25.6 µM	3.22 µM	11.5	4.07 µM	21.3 µM	11.4 µM	55.6 µM	10.2 µM	62.8 µM	2.38 µM	14.9 µM	4.54 µM	> 100 µM
[N-]=[N+]=NCCCn1c2c(c3ccc([N+](=O)[O-])cc3c1=O)C(=O)c1cc3c(cc1-2)OCO3	0.215 µM	2.1 µM		5.01 µM	0.109 µM	0.844 µM	2.58 µM	22.3 µM	2.26 µM	19.9		2.87 µM	< 0.01 µM	< 0.01 µM	< 0.01 µM	< 0.01 µM		> 100 µM	< 0.0388 µM	2.87 µM
COc1ccc(/C(C)=N/NC(=O)CSc2nc3ccccc3c(=O)n2CCc2ccc(S(N)(=O)=O)cc2)cc1	1.61 µM	3.23 µM	2.06 µM	3.96 µM	2.26 µM	6.75 µM	2.58 µM	6.68 µM	1.95 µM	3.98	1.99 µM	3.85 µM	1.66 µM	3.74 µM	1.91 µM	3.75 µM	1.81 µM	4.26 µM	2.1 µM	4 µM
Cc1c(Cl)c(=O)oc2cc(OC/C=C3\CCC(=O)O3)ccc12	27.8 µM	80 µM	26.1 µM	75.3 µM	11 µM	24.2 µM	15.7 µM	40.5 µM	13.8 µM	32.6	14.7 µM	33.1 µM	15.7 µM	32 µM	13.3 µM	31.7 µM	17.9 µM	37.5 µM	58.2 µM	> 100 µM
CC(C)(C)OC(=O)NCCCCn1c2c(c3ccccc3c1=O)C(=O)c1ccccc1-2	44.7 µM	> 100 µM	28.9 µM	> 100 µM	27 µM	> 100 µM	52.1 µM	> 100 µM	20.7 µM	47.7	5.42 µM	23.3 µM	24.5 µM	80.6 µM	36.4 µM	> 100 µM	35.4 µM	> 100 µM	17.6 µM	44.5 µM
CC(C)(C)c1cc(C(=O)Nc2ccc(C(=O)NCCN)cc2)cc(C(C)(C)C)c1	6.07 µM	22.8 µM	2.22 µM	5.14 µM	2.41 µM	7.63 µM	2.15 µM	4.85 µM	2.99 µM	9.64	2.18 µM	4.97 µM	13.1 µM	33.6 µM	1.71 µM	3.42 µM	4.02 µM	24.5 µM	3.15 µM	9.41 µM
C=CC(COC(=O)C(C)(C)OC(C)=O)c1ccc(OC(=O)C(C)C)c(OC)c1 (stereo not given)		32.5 µM		15.5 µM		6.38 µM		25.5 µM		24.8		28.9 µM		22.5 µM		21.8 µM		22.2 µM		47.5 µM
Cc1ccc(S(=O)(=O)OCC#CCOS(=O)(=O)c2ccc(C)cc2)cc1	4.99 µM	14.5 µM	2.08 µM	4.6 µM	1.19 µM	3.12 µM	3.07 µM	9.66 µM	2.37 µM	6.27	1.85 µM	3.36 µM	4.57 µM	9.68 µM	2.59 µM	7.65 µM	1.76 µM	4.38 µM	4.85 µM	19.8 µM
CCN(CC)c1c(-c2ccccc2)n[nH]c1C(=O)OC	31 µM	> 100 µM	17.8 µM	47 µM	18.5 µM	50.7 µM	42.5 µM	> 100 µM	22.5 µM	59.2	15.1 µM	36.8 µM	16.4 µM	51.1 µM	30.1 µM	86.9 µM	33.9 µM	> 100 µM	31.6 µM	> 100 µM
O=[N+]([O-])c1cccc(-c2nc(-c3ccc(Cl)cc3Cl)cn2-c2ccccc2)c1	3.54 µM	24.6 µM	0.573 µM	1.22 µM	3.25 µM	> 20.2 µM	1.9 µM	> 11.8 µM	0.612 µM	1.13	0.458 µM	0.945 µM	0.0695 µM	> 22.1 µM	1.45 µM	> 14.9 µM	0.509 µM	1.34 µM	0.787 µM	1.92 µM
OB(O)c1ccccc1C#Cc1ccccc1B(O)O		81.4 µM		49 µM		41.7 µM		34.7 µM		53.2		68.6 µM		47.8 µM		57.6 µM		> 100 µM		96.1 µM
CNCC/C=C1\c2cc3c(cc2-c2c1c1cc(OC)c(OC)cc1c(=O)n2C)OCO3	4.51 µM	27.4 µM	< 0.0507 µM	0.504 µM	0.122 µM	16.2 µM	9.68 µM	> 100 µM	0.941 µM	8.56	1.04 µM	17.9 µM	3.66 µM	22.5 µM	0.621 µM	17 µM	3.26 µM	33.8 µM	1.85 µM	18.8 µM
C/C=C/C/C=C/[C@H](C)C[C@H](O)[C@@H]1C[C@@H]2O[C@H]2/C=C/[C@@H]2OC(C)(C)O[C@H]2/C=C/C[C@H](C)CC(=O)O1	73.8 µM	> 100 µM	7.85 µM	> 100 µM	3.6 µM	31.9 µM	39.3 µM	> 100 µM	51.8 µM	> 100	12.4 µM	> 100 µM	16.3 µM	> 100 µM	12.9 µM	> 100 µM	24.6 µM	> 100 µM	8.79 µM	> 100 µM
CCOC(=O)Nc1nc2ccccc2[nH]1	15.8 µM and > 26.1 µM	> 100 µM	5.16 µM and 2.96 µM	> 100 µM	3.78 µM and 4.99 µM	> 79.3 µM	3.44 µM and 4.49 µM	> 100 µM	11.3 µM and > 27 µM	> 100	4.09 µM and 2.19 µM	20.4 µM and 5.61 µM	6.03 µM	> 100 µM	3.48 µM and 3.43 µM	> 100 µM	3.01 µM and 2.61 µM	> 100 µM	7.08 µM and 9.89 µM	> 100 µM
Cc1cc(C(=O)Nc2n[nH]c3ccccc23)n[nH]1	67.9 µM	> 100 µM	28.9 µM	> 100 µM	> 100 µM	> 100 µM	> 100 µM	> 100 µM	> 100 µM	> 100	> 100 µM	> 100 µM	> 100 µM	> 100 µM	> 100 µM	> 100 µM	62.6 µM	> 100 µM	> 100 µM	> 100 µM
CCCCCCCCCCCCCCCCCCNCc1ccc(Cl)cc1	2.65 µM	12.1 µM	2.5 µM	6.54 µM	2.52 µM	8.73 µM	8.65 µM	25.9 µM	2.3 µM	9.03	3.07 µM	11 µM	17.3 µM	42.2 µM	2.28 µM	7.04 µM	9.15 µM	27.3 µM	2.52 µM	5.65 µM
O=C1/C=C/[C@@H](O)[C@@H]2C[C@@H](O)C[C@H]2/C=C/CCC[C@H](CCc2ccc3ncccc3c2)O1	0.42 µM	> 100 µM	0.175 µM		0.212 µM	0.523 µM	0.266 µM	0.654 µM	0.265 µM	0.821	0.518 µM	> 100 µM	0.402 µM	16.2 µM	0.327 µM	18.3 µM	0.101 µM	> 29.8 µM	0.308 µM	> 57.9 µM
COc1cccc(-c2nn(-c3ccccc3)cc2-c2ccnc(NCCCNC(=O)c3cccc(C(F)(F)F)c3)c2)c1	11.3 µM	48.7 µM	3.64 µM	19.8 µM	2.58 µM	12.2 µM	7.23 µM	23.6 µM	7.33 µM	31.2	4.52 µM	19.7 µM	2.84 µM	9 µM	4.63 µM	30.3 µM	17 µM	57.8 µM	4.07 µM	16.2 µM
Cc1ccc(C(=O)c2sc3nc4c(cc3c2N)CCCC4)c(C)c1	2.49 µM	> 100 µM	0.251 µM	> 100 µM	0.126 µM		0.429 µM	> 71.2 µM	12.8 µM	> 100	0.183 µM	> 31.9 µM	1.2 µM	> 100 µM	0.19 µM	> 100 µM	0.247 µM	6.16 µM	0.377 µM	> 100 µM
CC1=C(/C=C/C(=O)CC(=O)/C=C/C2=C(C)CCCC2(C)C)C(C)(C)CCC1	77 µM	> 100 µM	32.9 µM	> 100 µM	26.5 µM	> 100 µM	20.3 µM	77.8 µM	28.1 µM	> 100	32.1 µM	> 100 µM	33.9 µM	> 100 µM	47.7 µM	> 100 µM	49.6 µM	> 100 µM	34.2 µM	> 100 µM
Cc1cc(-c2nnc(/C=C/c3ccc4c(c3)OCO4)o2)n[nH]1	38.5 µM	> 50 µM	2.15 µM	> 50 µM	8.15 µM	26.7 µM	12.1 µM	> 50 µM	22.3 µM	> 50	4.6 µM	20.7 µM	6.78 µM	39.3 µM	6.32 µM	21.1 µM	9.02 µM	36.2 µM	21.4 µM	> 50 µM
